In test [1] the target is T1, partially purified recombinant human LCAD (Homo sapiens, UniProt P28330).
T1 construct: made in house
T1 sequence (P28330 31-430): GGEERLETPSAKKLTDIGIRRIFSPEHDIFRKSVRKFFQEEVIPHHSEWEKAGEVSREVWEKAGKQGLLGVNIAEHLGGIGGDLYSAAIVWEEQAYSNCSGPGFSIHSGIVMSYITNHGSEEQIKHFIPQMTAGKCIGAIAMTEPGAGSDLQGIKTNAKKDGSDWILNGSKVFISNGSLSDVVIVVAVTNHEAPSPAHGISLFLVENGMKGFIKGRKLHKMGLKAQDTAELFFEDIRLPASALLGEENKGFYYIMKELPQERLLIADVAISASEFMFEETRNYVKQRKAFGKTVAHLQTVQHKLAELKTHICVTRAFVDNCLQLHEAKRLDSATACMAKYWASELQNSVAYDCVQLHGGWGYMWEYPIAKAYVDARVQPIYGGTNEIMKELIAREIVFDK
The experiment in a line: ETF fluorescence reduction assay with LCAD. It is filed as biochemical.

The target of test [2] is T2, purified recombinant human MCAD (Homo sapiens, UniProt P11310).
T2 construct: made in house; host or cells: E. coli JM105, co-expressed with GroEL/GroES
T2 sequence (P11310 26-421): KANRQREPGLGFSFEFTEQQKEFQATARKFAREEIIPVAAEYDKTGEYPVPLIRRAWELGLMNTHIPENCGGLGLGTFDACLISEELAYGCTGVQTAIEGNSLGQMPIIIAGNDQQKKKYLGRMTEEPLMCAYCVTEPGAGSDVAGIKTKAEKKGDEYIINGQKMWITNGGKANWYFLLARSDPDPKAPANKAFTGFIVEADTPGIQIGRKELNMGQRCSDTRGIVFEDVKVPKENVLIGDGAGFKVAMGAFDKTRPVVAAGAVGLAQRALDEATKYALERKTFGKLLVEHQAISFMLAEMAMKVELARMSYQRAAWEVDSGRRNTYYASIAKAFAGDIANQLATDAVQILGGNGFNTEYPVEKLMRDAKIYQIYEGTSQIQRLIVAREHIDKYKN
The test can be described thus: Formation of the charge transfer complex (reductive half-reaction), absorbance at 447/570 nm. Type of test: binding. Conditions: Stockell plot, substrate:subunit ratio 1:1; enzyme 25.2 μM; anaerobic, pH 8.0; read-out: apparent dissociation constant (KD app). How it is done: (§1) Purification of Recombinant Human MCAD.
(§2) Expression and purification of recombinant human MCAD was performed as previously described for isovaleryl-CoA dehydrogenase with minor modifications (18). E. coli JM105 cells (Amersham Biosciences Corp; Piscataway, N.J.) containing the human MCAD high expression vector pKeMCAD (19) and a GroEL/GroES expression plasmid were grown overnight in a 200-ml LB broth pre-culture that was used to inoculate 4×2-L cultures in 2-YT broth. The cells were left to grow overnight at 37° C. with shaking and MCAD expression was induced the next morning using IPTG at a final concentration of 0.5 mM for 3 hrs. Cells were harvested by centrifugation and resuspended at 4° C. in 2:1 weight to volume of 100 mM potassium phosphate pH 8.0, 150 mM EDTA. Cells were then lysed by sonication on ice. […]
Formation of the charge transfer ternary complex was monitored by observing the increase in absorbance at the 570 nm area, concomitant with the decrease of absorbance at 447 nm area, of the purified MCAD in 120 mM potassium phosphate spectrum under anaerobic conditions using a Jasco V-650 Spectrophotometer. […] Ten seconds of equilibration time were allowed after mixing and the sample was scanned for UV/Visible light absorbance at 250 to 800 nm. […] The “apparent” productive-binding constant (Kd app) was calculated with the following equation: […]

Test [3] concerns extracts from wild type fibroblast cells (GM085401). The test can be described thus: ETF fluorescence reduction assay of cell extract, wild type fibroblasts. Type of test: biochemical, human. The following applies: 30 μM substrate. How it is done: (§3) Fibroblast Cell Culture and Extract Preparation.
(§4) Wild type and MCAD deficient cells (homozygous for the K304E mutation) with the designation GM085401 and GM07844, respectively, were obtained form Coriell Institute for Medical Research, Camden, N.J. Cells were cultured in DMEM medium supplemented with glutamine and ampicillin and streptomycin, and 20% fetal bovine serum. Cells were harvested from a T175 flask by sonication with a buffer consisting of 50 mM Tris buffer and 10 mM EDTA, pH 8.0. The cell debris was removed by centrifugation and the cell free extract was assayed for protein and enzyme activity as described below.
(§5) ETF Fluorescence Reduction Assay.
(§6) The ETF reduction assay was performed using a Jasco FP-6300 spectrofluorometer (Easton, Md.) with a cuvette holder heated with circulating water at 32° C. The assay was otherwise performed as described (22), at the indicated substrate concentrations. The enzyme was diluted 1200-fold into a buffer containing 50 mM Tris, pH 8.0, 5 mM EDTA and 50% glycerol, and […] were used for each assay. The ETF concentration in the reaction mixture was 2 μM. Spectra Manager 2 software (Jasco Inc) was used to collect data and calculate reaction rate and Microsoft Excel was used to calculate the kinetic parameters.

In test [4] the test system is extract from fibroblast cells deficient in MCAD (GM07844, homozygous K304E). The experiment in a line: ETF fluorescence reduction assay of cell extract, MCAD deficient fibroblasts. Type of test: biochemical, human. Conditions: similar amounts of extract. How it is done:
as §3, §4, §5, §6

The target in the next test is T3, MCAD K304E mutant (Homo sapiens, UniProt P11310, K329E).
T3 sequence (P11310 26-421 K329E): T2 sequence (P11310 26-421) with K304E
Conditions: reported in ref. 27; cited from earlier work.

The target of a further test is T4, recombinant human MCAD (Homo sapiens, UniProt P11310).
T4 construct: made in house; host or cells: E. coli JM105, co-expressed with GroEL/GroES
T4 sequence (P11310 26-421): T2 sequence (P11310 26-421)
The test can be described thus: ETF fluorescence reduction assay with purified MCAD (oxidative half-reaction). Type of test: biochemical. How it is done: as §1
as §2, with “ice. Including high amounts of EDTA in the cell lysis buffer can protect residues with groups, e.g., cysteine thiols and methionine sulfide groups, vulnerable to modification by oxygen reactive species generated during sonication cell suspension. This was effective in improving enzyme preparations resulting higher specific activity and consistent kinetic behavior. Cellular debris was removed by centrifugation first at 250,000×g for 60 minutes each.” for “ice.”
(§7) ETF Fluorescence Reduction Assay. […]

A further test concerns the target T5, Purified SCAD (Homo sapiens, UniProt P16219).
T5 construct: made in house
T5 sequence (P16219 25-412): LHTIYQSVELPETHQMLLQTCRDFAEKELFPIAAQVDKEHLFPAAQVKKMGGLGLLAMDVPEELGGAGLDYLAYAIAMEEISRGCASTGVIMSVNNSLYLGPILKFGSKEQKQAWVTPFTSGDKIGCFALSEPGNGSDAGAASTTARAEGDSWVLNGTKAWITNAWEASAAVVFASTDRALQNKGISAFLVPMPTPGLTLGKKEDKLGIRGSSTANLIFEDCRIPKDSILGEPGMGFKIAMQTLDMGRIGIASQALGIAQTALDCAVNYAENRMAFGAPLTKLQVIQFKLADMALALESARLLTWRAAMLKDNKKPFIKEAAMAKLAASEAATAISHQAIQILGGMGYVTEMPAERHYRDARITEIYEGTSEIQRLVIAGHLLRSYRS
The test can be described thus: ETF fluorescence reduction assay with SCAD. It is filed as biochemical. How it is done: as §2, with “ice. Including high amounts of EDTA in the cell lysis buffer can protect residues with groups, e.g., cysteine thiols and methionine sulfide groups, vulnerable to modification by oxygen reactive species generated during sonication cell suspension. This was effective in improving enzyme preparations resulting higher specific activity and consistent kinetic behavior. Cellular debris was removed by centrifugation first at 250,000×g for 60 minutes each. The final supernatant was dialyzed for 4 hours with vigorous stirring in 50 mM potassium phosphate pH 8.0, at 4° C.” for “ice.”
as §7

The next test has as its target T6, Purified ACAD9 (Homo sapiens, UniProt Q9H845).
T6 construct: made in house
T6 sequence (Q9H845 38-621): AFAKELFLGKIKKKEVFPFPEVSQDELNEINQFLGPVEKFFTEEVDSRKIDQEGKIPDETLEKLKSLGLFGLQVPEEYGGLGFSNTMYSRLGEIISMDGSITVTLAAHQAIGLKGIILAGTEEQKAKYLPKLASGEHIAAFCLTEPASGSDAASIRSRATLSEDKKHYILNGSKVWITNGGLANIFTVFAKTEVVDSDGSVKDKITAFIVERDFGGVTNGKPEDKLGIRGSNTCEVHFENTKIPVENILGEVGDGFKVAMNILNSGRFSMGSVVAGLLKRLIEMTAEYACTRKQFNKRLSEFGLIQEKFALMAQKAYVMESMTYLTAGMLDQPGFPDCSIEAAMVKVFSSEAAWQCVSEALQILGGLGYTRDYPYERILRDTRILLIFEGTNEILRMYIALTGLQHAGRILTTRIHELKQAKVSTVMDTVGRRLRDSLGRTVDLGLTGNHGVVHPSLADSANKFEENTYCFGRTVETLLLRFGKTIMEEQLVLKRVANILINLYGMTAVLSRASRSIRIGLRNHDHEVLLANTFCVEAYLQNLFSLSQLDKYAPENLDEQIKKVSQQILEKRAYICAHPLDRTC
The test can be described thus: ETF fluorescence reduction assay with ACAD9. It is filed as biochemical.

The text below walks through data of US9649285B2, “Treatment of medium-chain acyl-CoA dehydrogenase deficiency” (UNIVERSITY OF PITTSBURGH—OF THE COMMONWEALTH SYSTEM OF …, priority 2012, dated 2017).

Numbering of substitutions follows the chain as printed.

Turning to `CC(C)CCCC(C)C(=O)SCCNC(=O)CCNC(=O)[C@H](O)C(C)(C)COP(=O)(O)OP(=O)(O)OC[C@H]1O[C@@H](n2cnc3c(N)ncnc32)[C@H](O)[C@@H]1OP(=O)(O)O` (stereo partly drawn) [2,6-dimethylheptanoyl-CoA], in test [1], the “activity of LCAD with substrate” value was “active”.
As to `CCCCCCCCCCCC(=O)SCCNC(=O)CCNC(=O)[C@H](O)C(C)(C)COP(=O)(O)OP(=O)(O)OC[C@H]1O[C@@H](n2cnc3c(N)ncnc32)[C@H](O)[C@@H]1OP(=O)(O)O` [C12-CoA], the “activity of LCAD with substrate” value in test [1] is reported as “active”.
With `CCCCCCCC(=O)SCCNC(=O)CCNC(=O)[C@H](O)C(C)(C)COP(=O)(O)OP(=O)(O)OC[C@H]1O[C@@H](n2cnc3c(N)ncnc32)[C@H](O)[C@@H]1OP(=O)(O)O` [octanoyl-CoA], the Kd in test [2] came out at 0.12 µM. Moreover, the Enzyme specific activity was 4.01 (±1.34) nmoles ETF reduced x min^−1 x mg^−1 in test [3] and “No activity” in test [4]. Further, the “thermal stability of the MCAD K304E mutant” value on MCAD K304E mutant is “provide thermal stability”.
For `CCCCCCCCCCCCCCCC(=O)SCCNC(=O)CCNC(=O)[C@H](O)C(C)(C)COP(=O)(O)OP(=O)(O)OC[C@H]1O[C@@H](n2cnc3c(N)ncnc32)[C@H](O)[C@@H]1OP(=O)(O)O` [palmitoyl-CoA], the Enzyme specific activity is 9.10 (±2.13) nmoles ETF reduced x min^−1 x mg^−1 in test [3] and 3.91 (±1.34) nmoles ETF reduced x min^−1 x mg^−1 in test [4].
With `CC(C)(COP(=O)(O)OP(=O)(O)OC[C@H]1O[C@@H](n2cnc3c(N)ncnc32)[C@H](O)[C@@H]1OP(=O)(O)O)[C@@H](O)C(=O)NCCC(=O)NCCSC(=O)CCCc1ccccc1` [phenylbutyryl-CoA], the Kd in test [2] was determined as 2.16 µM. In addition, the “activity of MCAD with substrate” value at recombinant human MCAD is “no activity”. Further, the “activity of LCAD with substrate” value in test [1] is “not active”. In addition, on Purified SCAD, the “activity of SCAD with substrate” value is reported as “no activity”. The “activity of ACAD9 with substrate” value on Purified ACAD9 is given as “no activity”. The Enzyme specific activity in test [3] is 3.41 (±0.53) nmoles ETF reduced x min^−1 x mg^−1; in test [4] it was “No activity”.
